Measurements from PMC10372819 (Acta Pharmaceutica Sinica. B, 2023).

Columns and labels:
WT HIV-1 [1] = settings: Selectivity index CC50/EC50 (WT)
WT HIV-1 RT = WT HIV-1 RT (Human immunodeficiency virus type 1 group M subtype B, UniProt P03366); assay: biochemical
HIV-1 mutant Y188L = assay: microbe, parasite or virus in culture; settings: Human immunodeficiency virus 1, MT4, read-out: EC50 Y188L
[2] = Cytotoxicity in uninfected; settings: human, mock-infected (uninfected) MT-4 cells, CC50, uninfected MT-4 cells, MTT
WT HIV-1 [3] = assay: microbe, parasite or virus in culture; settings: Human immunodeficiency virus 1, MT4, read-out: WT EC50
HIV-1 mutant E138K = assay: microbe, parasite or virus in culture; settings: Human immunodeficiency virus 1, MT4, read-out: EC50 E138K
HIV-1 mutant K103N = assay: microbe, parasite or virus in culture; settings: Human immunodeficiency virus 1, MT4, read-out: EC50 K103N
HIV-1 mutant L100I = assay: microbe, parasite or virus in culture; settings: Human immunodeficiency virus 1, MT4, read-out: EC50 L100I
[4] = Liver microsomal stability, dog; assay type: in vitro ADME
[5] = In vivo pharmacokinetics in Sprague-Dawley rats; settings: male, rat, plasma
[6] = Liver microsomal stability, human; assay type: in vitro ADME
[7] = Liver microsomal stability, monkey; assay type: in vitro ADME
MT-4 cells = assay: Cytotoxicity in uninfected; settings: uninfected MT-4 cells, MTT
hERG = hERG (Homo sapiens, UniProt Q12809); assay: hERG channel Qpatch assay in CHO-hERG cells; assay type: cell-based; settings: at 40 μmol/L
Sequence of hERG (Q12809 whole entry): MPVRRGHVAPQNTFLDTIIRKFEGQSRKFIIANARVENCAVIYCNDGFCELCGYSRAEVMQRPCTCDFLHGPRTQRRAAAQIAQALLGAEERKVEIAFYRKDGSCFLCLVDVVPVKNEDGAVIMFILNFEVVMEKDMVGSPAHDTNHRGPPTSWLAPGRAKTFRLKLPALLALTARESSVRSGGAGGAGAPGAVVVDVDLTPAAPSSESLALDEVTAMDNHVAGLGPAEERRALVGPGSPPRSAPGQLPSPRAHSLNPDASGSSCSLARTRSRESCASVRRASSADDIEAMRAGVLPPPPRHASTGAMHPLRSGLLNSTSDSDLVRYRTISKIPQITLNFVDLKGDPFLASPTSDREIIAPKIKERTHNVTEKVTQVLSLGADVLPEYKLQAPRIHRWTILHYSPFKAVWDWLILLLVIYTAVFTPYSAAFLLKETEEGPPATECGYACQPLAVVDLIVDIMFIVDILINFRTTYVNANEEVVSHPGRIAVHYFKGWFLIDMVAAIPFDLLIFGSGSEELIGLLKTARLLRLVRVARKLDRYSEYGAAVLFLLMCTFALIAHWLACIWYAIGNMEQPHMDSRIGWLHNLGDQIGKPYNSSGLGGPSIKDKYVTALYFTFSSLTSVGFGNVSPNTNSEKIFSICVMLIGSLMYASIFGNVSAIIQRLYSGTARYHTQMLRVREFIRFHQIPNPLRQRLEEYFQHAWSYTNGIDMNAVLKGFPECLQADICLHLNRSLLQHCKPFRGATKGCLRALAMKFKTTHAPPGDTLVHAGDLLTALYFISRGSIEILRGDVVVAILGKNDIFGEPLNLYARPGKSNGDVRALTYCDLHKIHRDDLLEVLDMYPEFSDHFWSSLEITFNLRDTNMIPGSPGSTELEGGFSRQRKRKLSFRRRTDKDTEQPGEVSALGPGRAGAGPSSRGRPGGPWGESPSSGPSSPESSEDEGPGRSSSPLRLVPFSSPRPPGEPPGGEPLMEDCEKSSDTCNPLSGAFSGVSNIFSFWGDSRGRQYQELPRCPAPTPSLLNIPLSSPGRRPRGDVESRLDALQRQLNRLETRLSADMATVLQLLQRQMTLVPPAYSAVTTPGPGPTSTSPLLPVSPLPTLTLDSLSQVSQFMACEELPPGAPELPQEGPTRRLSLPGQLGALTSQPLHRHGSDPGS

mice = assay: Acute toxicity assay and HE staining in healthy mice; assay type: in vivo
[8] = MF%>70% excellent, 30-70% good, <30% poor

Cc1cc(-c2ccc(C#N)cc2)cc(C)c1Oc1nc(Nc2ccc(C#N)cc2)ncc1CO [9a, 4′-((2-((4-Cyanophenyl)amino)-5-(hydroxymethyl)pyrimidin-4-yl)oxy)-3′,5′-dimethyl-[1,1′-biphenyl]-4-carbonitrile]
SI (WT HIV-1 [1]): 6343
IC50 (WT HIV-1 RT): 35 ± 8 nM
EC50 (HIV-1 mutant Y188L): 33 ± 4 nM
CC50 at 5 days [2]: 15600 ± 4600 nM
EC50 (WT HIV-1 [3]): 2.5 ± 0.6 nM
EC50 (HIV-1 mutant E138K): 6.5 ± 0.5 nM
EC50 (HIV-1 mutant K103N): 3.2 ± 0.7 nM
EC50 (HIV-1 mutant L100I): 6.3 ± 0.3 nM

Cc1cc(-c2ccc(C#N)cc2)ccc1Oc1nc(Nc2ccc(C#N)cc2)ncc1CO [9b, 4′-((2-((4-Cyanophenyl)amino)-5-(hydroxymethyl)pyrimidin-4-yl)oxy)-3′-methyl-[1,1′-biphenyl]-4-carbonitrile]
SI (WT HIV-1 [1]): >38,095
IC50 (WT HIV-1 RT): 27 ± 2 nM
EC50 (HIV-1 mutant Y188L): 144 ± 25.9 nM
CC50 at 5 days [2]: > 46200 nM
EC50 (WT HIV-1 [3]): 1.2 ± 0.1 nM
EC50 (HIV-1 mutant E138K): 3.6 ± 0.7 nM
EC50 (HIV-1 mutant K103N): 2.9 ± 0.1 nM
EC50 (HIV-1 mutant L100I): 18.1 ± 3.4 nM

COc1cc(-c2ccc(C#N)cc2)ccc1Oc1nc(Nc2ccc(C#N)cc2)ncc1CO [9c, 4′-((2-((4-Cyanophenyl)amino)-5-(hydroxymethyl)pyrimidin-4-yl)oxy)-3′-methoxy-[1,1′-biphenyl]-4-carbonitrile]
SI (WT HIV-1 [1]): 149,540
IC50 (WT HIV-1 RT): 21 ± 8 nM
EC50 (HIV-1 mutant Y188L): 137 ± 8.1 nM
CC50 at 5 days [2]: 258000 ± 1200 nM
EC50 (WT HIV-1 [3]): 1.7 ± 0.1 nM
EC50 (HIV-1 mutant E138K): 19.4 ± 4.8 nM
EC50 (HIV-1 mutant K103N): 6.5 ± 0.2 nM
EC50 (HIV-1 mutant L100I): 20.5 ± 1.3 nM

N#Cc1ccc(Nc2ncc(CO)c(Oc3ccc(-c4ccc(C#N)cc4)cc3F)n2)cc1 [9d, 4′-((2-((4-Cyanophenyl)amino)-5-(hydroxymethyl)pyrimidin-4-yl)oxy)-3′-fluoro-[1,1′-biphenyl]-4-carbonitrile]
SI (WT HIV-1 [1]): >11,594
IC50 (WT HIV-1 RT): 33 ± 2 nM
EC50 (HIV-1 mutant Y188L): 41800 nM
CC50 at 5 days [2]: > 45800 nM
EC50 (WT HIV-1 [3]): 3.9 ± 0.4 nM
EC50 (HIV-1 mutant E138K): 34.9 ± 3.2 nM
EC50 (HIV-1 mutant K103N): 14.4 ± 1.5 nM
EC50 (HIV-1 mutant L100I): 117 ± 17.7 nM

N#Cc1ccc(Nc2ncc(CO)c(Oc3ccc(-c4ccc(C#N)cc4)cc3Cl)n2)cc1 [9e, 3′-Chloro-4′-((2-((4-cyanophenyl)amino)-5-(hydroxymethyl)pyrimidin-4-yl)oxy)-[1,1′-biphenyl]-4-carbonitrile]
SI (WT HIV-1 [1]): >17,021
IC50 (WT HIV-1 RT): 29 ± 3 nM
EC50 (HIV-1 mutant Y188L): 564 ± 97 nM
CC50 at 5 days [2]: > 44100 nM
EC50 (WT HIV-1 [3]): 2.6 ± 0.5 nM
EC50 (HIV-1 mutant E138K): 11 ± 2.1 nM
EC50 (HIV-1 mutant K103N): 3.8 ± 0.2 nM
EC50 (HIV-1 mutant L100I): 18.5 ± 3.6 nM

N#Cc1ccc(Nc2ncc(CO)c(Oc3ccc(-c4ccc(C#N)cc4)cc3C(F)(F)F)n2)cc1 [9f, 4′-((2-((4-Cyanophenyl)amino)-5-(hydroxymethyl)pyrimidin-4-yl)oxy)-3′-(trifluoromethyl)-[1,1′-biphenyl]-4-carbonitrile]
SI (WT HIV-1 [1]): 7891
IC50 (WT HIV-1 RT): 21 ± 6 nM
EC50 (HIV-1 mutant Y188L): 85.3 ± 8.4 nM
CC50 at 5 days [2]: 14600 ± 3100 nM
EC50 (WT HIV-1 [3]): 1.8 ± 0.1 nM
EC50 (HIV-1 mutant E138K): 7.9 ± 0.2 nM
EC50 (HIV-1 mutant K103N): 3.2 ± 0.6 nM
EC50 (HIV-1 mutant L100I): 11.1 ± 0.5 nM

N#Cc1ccc(Nc2ncc(CO)c(Oc3c(F)cc(-c4ccc(C#N)cc4)cc3F)n2)cc1 [9g, 4′-((2-((4-Cyanophenyl)amino)-5-(hydroxymethyl)pyrimidin-4-yl)oxy)-3′,5′-difluoro-[1,1′-biphenyl]-4-carbonitrile]
SI (WT HIV-1 [1]): 256,438
IC50 (WT HIV-1 RT): 21 ± 1 nM
MF [4, 8]: 42.2%
half-life ([4]; dog liver microsomes): 1.19 h
CLint scaled ([4]; dog liver microsomes, Clint(hep)): 179 mL/min/kg
CLint scaled ([4]; dog liver microsomes, Clint(mic), dog liver microsome): 29.5 mL/min/kg
Cmax ([5]; iv, 1 mg/kg): 296 ± 79.4 ng/mL
Tmax ([5]; iv, 1 mg/kg): 0.08 h
half-life ([5]; iv, 1 mg/kg): 1.5 ± 0.14 h
AUC ([5]; iv, 1 mg/kg, AUC0‒t, 1.0 mg/kg i.v.): 244 ± 24.5 ng·h/mL
AUC ([5]; iv, 1 mg/kg, AUC0‒∞, 1.0 mg/kg i.v.): 247 ± 25.8 ng·h/mL
MRT ([5]; iv, 1 mg/kg, MRT0‒t, 1.0 mg/kg i.v.): 1.19 ± 0.16 h
MRT ([5]; iv, 1 mg/kg, MRT0‒∞, 1.0 mg/kg i.v.): 1.33 ± 0.21 h
Cmax ([5]; po, 10 mg/kg): 39.3 ± 8.04 ng/mL
Tmax ([5]; po, 10 mg/kg): 0.83 ± 0.29 h
bioavailability ([5]; po, 10 mg/kg): 8.01 ± 0.02%
half-life ([5]; po, 10 mg/kg): 5.21 ± 3.02 h
AUC ([5]; po, 10 mg/kg, AUC0‒t, 10.0 mg/kg p.o.): 159 ± 48.7 ng·h/mL
AUC ([5]; po, 10 mg/kg, AUC0‒∞, 10.0 mg/kg p.o.): 198 ± 38.6 ng·h/mL
MRT ([5]; po, 10 mg/kg, MRT0‒t, 10.0 mg/kg p.o.): 3.91 ± 2.38 h
MRT ([5]; po, 10 mg/kg, MRT0‒∞, 10.0 mg/kg p.o.): 6.8 ± 2.79 h
half-life ([6]; human, human liver microsomes): 45.9 h
CLint scaled ([6]; human, human liver microsomes, Clint(hep)): 56.2 mL/min/kg
CLint scaled ([6]; human, human liver microsomes, Clint(mic), human liver microsome): 0.763 mL/min/kg
MF ([6]; human, MF%>70% excellent, 30-70% good, <30% poor): 96.3%
t1/2 in human liver microsomes, fold longer than that of 5 ([6]; relative to 5 (t1/2 = 96 min)): about 29 fold
EC50 (HIV-1 mutant Y188L): 161 ± 27.6 nM
MF [7, 8]: 28.1%
half-life ([7]; monkey liver microsomes): 0.435 h
CLint scaled ([7]; monkey liver microsomes, Clint(hep)): 122 mL/min/kg
CLint scaled ([7]; monkey liver microsomes, Clint(mic), monkey liver microsome): 80.5 mL/min/kg
CC50 at 5 days [2]: 264000 nM
CC50 (MT-4 cells): 225000 ± 3900 nM
EC50 (WT HIV-1 [3]): 0.9 ± 0.1 nM
inhibition of hERG (hERG): no significant inhibition
EC50 (HIV-1 mutant E138K): 3.5 ± 0.8 nM
EC50 (HIV-1 mutant K103N): 1.9 ± 0.2 nM
body weight (mice; mice (male and female), 2 g/kg, within two weeks): increased gradually
behavioral abnormalities (mice; mice, 2 g/kg): No behavioral abnormalities
pathological injury (HE staining) (mice; mice, 2 g/kg, six organs): no obvious pathological injury
tolerability (mice; mice, single oral administration of 2 g/kg): well tolerated
EC50 (HIV-1 mutant L100I): 8.2 ± 1.4 nM

Cc1cc(-c2ccncc2)cc(C)c1Oc1nc(Nc2ccc(C#N)cc2)ncc1CO [9h, 4-((4-(2,6-Dimethyl-4-(pyridin-4-yl)phenoxy)-5-(hydroxymethyl)pyrimidin-2-yl)amino)benzonitrile]
SI (WT HIV-1 [1]): 30,868
EC50 (HIV-1 mutant Y188L): 1580 ± 103 nM
CC50 at 5 days [2]: 221000 ± 12500 nM
EC50 (WT HIV-1 [3]): 7.1 ± 3 nM
EC50 (HIV-1 mutant E138K): 38.9 ± 4.1 nM
EC50 (HIV-1 mutant K103N): 20.1 ± 3 nM
EC50 (HIV-1 mutant L100I): 323 ± 44.5 nM
